Where “and” joins values, the source holds several entries; their conditions need not be identical. Identical values can stand only once. Starred links: 1 amine or outer side, 2 acyl side, 3 side chain; linkers in the order of their positions; H or OH if unused. Non-standard residues stand in square brackets, D forms with d. Residues, ends and D or L forms follow the SMILES beside them. ξ: configuration not given here. *: point of attachment. GluureaLys(ε-3-ClBenzyl) = O=C(O)CC[C@H](NC(=O)N[C@@H](CCCCN(Cc1cccc(Cl)c1)*)C(=O)O)C(=O)O; Dolaproine = CO[C@@H]([C@@H]1CCCN1)[C@@H](C)C(=O)O; Dil = CC[C@H](C)[C@H](NC)[C@@H](CC(=O)O)OC; X1 = O=C(CCCc1cn(CCCN[*:1])nn1)[*:2]; PABC = O=C(OCc1ccc(N[*:1])cc1)[*:2]; X2 = C[C@@H](N*)[C@@H](O)c1ccccc1; Cit = NC(=O)NCCC[C@H](N)C(=O)O; Suc = O=C(CCC(=O)[*:2])[*:1]; NMeV = CN[C@H](C(=O)O)C(C)C; ξV = CC(C)C(N)C(=O)O; Ahx = NCCCCCC(=O)O
How the values were obtained:
Lymphoid Leukosis P388 = experiment: Antineoplastic activity on lymphoid leukosis P388 model (lifespan/survival); assay type: in vivo, male mice BDF1; conditions: 0.5 and 1 mg/kg
Protocol: Lymphoid Leukosis P388 (male mice BDF1)—observation was held for 30 days since the first product administration (the product administration was started 24 hours after revaccination) and it was administered 3 times intraperitoneally in a day.
• 1. Group 1—tumor growth control (TGC) • 2. Group 2—placebo (diluent) • 3. Group 3—intraperitoneal Conjugate (I) administration in a dose of 0.5 mg/kg 3 times; • 4. Group 4—intraperitoneal Conjugate (I) administration in a dose of 1.0 mg/kg 3 times:
Experimental animals of control group (TGC) were administered with 0.9% saline, the placebo group was injected with the diluent (DMSO+Haemodes) of similar volume. The antineoplastic activity was determined according to mice lifespan.

[1] = system: 22Rv1 prostate cancer s.c. xenografts; experiment: Antineoplastic efficacy on 22Rv1 prostate cancer xenograft model (tumor growth inhibition); assay type: in vivo, mice; conditions: for Tumor volume, V mean / TGI %: 22Rv1; for Tumor volume, V mean / TGI % / Tumor volume (individual tumors): 0.3 mg/kg i.p. x3; for TGI %: vs TGC; for Tumor volume (individual tumors): 22Rv1 s.c. xenograft, 0.3 mg/kg
From the text: The evaluation of antineoplastic Conjugate (I) efficacy on xenograft model of prostate cancer.
To study the drug efficacy the xenograft model was selected as a quite illustrative one for preclinical studies (Application of Prostate Cancer Models for Preclinical Study: Advantages and Limitations of Cell Lines, Patient-Derived Xenografts, and Three-Dimensional Culture of Patient-Derived Cells Takeshi Namekawa, Kazuhiro Kuniko Horie-Inoue, Satoshi Inoue Cells, 2019 January; 8(1), The criteria of antineoplastic activity were tumor growth inhibition (TGI) (Experimental assessment of antineoplastic agents in the USSR and USA/IEd. Ed. Sophyina Z. P., Syrkin A. B., Goldin F., Klein I.//J.: Medicine, 1980) in treated animals (Pon) compared with control (Pk), expressed as a percentage: […]
The treatment in all groups was started when tumor nodes were appeared.
Tumor growth was times at the end of study (Table 1).

Melanoma B16 = experiment: Antineoplastic activity on melanoma B16 model (tumor growth inhibition); assay type: in vivo; conditions: for Tumor volume, Mean / TGI %: B16, 1.0 mg/kg; for TGI %: vs TGC; for Tumor volume (individual tumors): s.c. B16 melanoma, 1.0 mg/kg i.p. x3, 1 mg/kg
Protocol: Melanoma B16-30 days after the first product administration (the product administration was started 48 hours after revaccination) and it was administered 3 times intraperitoneally in 5 days,
• 1. Group 1—diluent (placebo) • 2. Group 2—intraperitoneal Conjugate (I) administration in a dose of 1 mg/kg 3 times:
Experimental animals of control group (TGC) were administered with the diluent (DMSO+Haemodes) of similar Volume (placebo product). The measurement of tumor node was performed three times (on. Day 1, 4 and 8 after treatment completion), The antineoplastic activity was determined according to the standard parameters: tumor growth inhibition TGI (>50%). The survival observation was continued up to 30 days (Table 3).

[2] = Acute toxicity study, single intravenous administration, rats; assay type: in vivo; conditions: for Necropsy (per animal): day 14, listed as test drug
From the text: Acute toxicity study of Conjugate (I) product on mice and rats.
• 1. Conjugate (I). • 2. Solubilizer Pluronic F127—in the amount, five-fold greater than the conjugate amount by weight. • 3. Diluent Haemodes infusion solution. • 4. Dimethyl sulfoxide—in the amount of 5% of the prepared volume.
The experiment took white outbred male mice aged about 2 months with body weight of 19-21,g, and also white outbred mature male rats aged about 2 months with body weight 190-210 g.
Acute toxicity study was performed within the intravenous administration. Before the start of the experiment to determine an acute toxicity, the animals were deprived of food and water (mice were deprived for 2 hours, rats—for 10-12 hours), and then weighed. Then each animal received the intravenous drug injection according to the study design, in a volume not exceeding the acceptable single injection volume: 0.5 mL for mice, 2 mL for rats, and fractionally if necessary. The control group of animals received Pluronic solution in Haemodes in the proportion used fort dose preparation of 78 mg/kg for mice and 38 mg/kg for rats. The duration of observation for laboratory animals was 14 days. During this period, visible signs of intoxication were assessed (see Table 9).

For CC[C@H](C)[C@@H]([C@@H](CC(=O)N1CCC[C@H]1[C@H](OC)[C@@H](C)C(=O)N[C@H](C)[C@@H](O)c1ccccc1)OC)N(C)C(=O)[C@@H](NC(=O)[C@H](C(C)C)N(C)C(=O)OCc1ccc(NC(=O)[C@H](CCCNC(N)=O)NC(=O)C(NC(=O)CCCc2cn(CCCNC(=O)[C@H](Cc3ccc(O)cc3)NC(=O)[C@H](Cc3ccccc3)NC(=O)CCC(=O)NCCCCCC(=O)N(CCCC[C@H](NC(=O)N[C@@H](CCC(=O)O)C(=O)O)C(=O)O)Cc3cccc(Cl)c3)nn2)C(C)C)cc1)C(C)C (stereo partly shown) [Conjugate (I)] ({GluureaLys(ε-3-ClBenzyl)-Ahx-Suc}-FY[X1][ξV][Cit][PABC][NMeV]V[Dil][Dolaproine]-X2), the Antineoplastic activity (Lymphoid Leukosis P388) was “presence of the antineoplastic activity”, the “Tumor volume, V mean” value ([1]; day 1) was 28 mm^3 and the TGI % ([1]; day 1 after treatment completion) was 83%. For the same molecule, the “Tumor volume, V mean” value ([1]; day 4) was 83 mm^3, the TGI % ([1]; day 4) was 85% and the “Tumor volume, V mean” value ([1]; day 8) was 341 mm^3. For the same molecule, the TGI % ([1]; day 8) was 70%, the “Tumor volume (individual tumors)” value ([1]; day 1 after treatment) was 22 mm^3 and 17 mm^3 (2×) and 45 mm^3 and 14 mm^3 and 19 mm^3 and 30 mm^3 (2×) and 32 mm^3 and 31 mm^3 and 51 mm^3 and 34 mm^3 and 18 mm^3 and 40 mm^3 and the “Tumor volume (individual tumors)” value ([1]; day 4 after treatment) was 72 mm^3 (2×) and 42 mm^3 and 75 mm^3 and 38 mm^3 and 78 mm^3 and 173 mm^3 and 63 mm^3 and 108 mm^3 and 115 mm^3 and 65 mm^3 and 74 mm^3 and 102 mm^3 and 81 mm^3. The “Tumor volume (individual tumors)” value ([1]; day 8 after treatment) was 346 mm^3 and 111 mm^3 and 369 mm^3 and 186 mm^3 and 463 mm^3 and 597 mm^3 and 570 mm^3 and 314 mm^3 and 853 mm^3 and 177 mm^3 and 247 mm^3 and 349 mm^3 and 94 mm^3 and 96 mm^3, the “Dose achieving effective tumor growth inhibition (TGI)” value ([1]; mouse, in vivo) was “approximately 0.3 mg/kg” and the “Tumor volume, Mean” value (Melanoma B16; day 1) was 66 mm^3. The TGI % (Melanoma B16; day 1) was 75%, the “Tumor volume, Mean” value (Melanoma B16; day 4) was 433 mm^3 and the TGI % (Melanoma B16; day 4) was 62%. For the same molecule, the “Tumor volume, Mean” value (Melanoma B16; day 8) was 898 mm^3, the TGI % (Melanoma B16; day 8) was 61% and the “Tumor volume (individual tumors)” value (Melanoma B16; day 1 after treatment) was 135 mm^3 and 72 mm^3 and 64 mm^3 (2×) and 48 mm^3 and 90 mm^3 and 36 mm^3 and 16 mm^3. The “Tumor volume (individual tumors)” value (Melanoma B16; day 4) was 768 mm^3 and 364 mm^3 and 476 mm^3 and 220 mm^3 and 544 mm^3 and 525 mm^3 and 120 mm^3 and 448 mm^3, the “Tumor volume (individual tumors)” value (Melanoma B16; day 8) was 1,030 mm^3 and 855 mm^3 (2×) and 1,045 mm^3 and 675 mm^3 and 1,144 mm^3 and 972 mm^3 and 560 mm^3 and the “Body weight effect (summary)” value ([2]; male rats, all test doses) was “decreased growth rate or decreased body weight regarding the initial One”. It also gave a Fatality ([2]; male rats, i.v. 4 mg/kg) of 0, a Fatality ([2]; male rats, i.v. 4.5 mg/kg) of 3 and a Fatality ([2]; male rats, i.v. 5 mg/kg) of 5. It also gave a Fatality ([2]; male rats, i.v. 5.1 mg/kg) of 4, a Fatality ([2]; male rats, i.v. 5.4 mg/kg) of 10 and an MTD at 14 days ([2]; male, white outbred, rat, in vivo, iv, rats, single i.v., read-out: Maximum tolerated dose) of 4 mg/kg. For the same molecule, the “Necropsy (per animal)” value ([2]; rats, 1 mg/kg i.v., 1 mg/kg) was 1- NORMAL and 2- NORMAL and 3- light kidneys and 4- NORMAL and 5- NORMAL and 6- light kidneys, blurred pattern lines and 7- adrenals glands had hemorrhages, kidneys are and 8- light kidneys and 9- large spleen, granular kidneys and 10- kidneys with hemorrhages, the “Necropsy (per animal)” value ([2]; rats, 2 mg/kg i.v., 2 mg/kg) was 1- very light kidneys, unclear pattern, large spleen and 2- light-brown kidneys, dark adrenal glands with and 3- light-brown kidneys with hemorrhages, kidney cut and 4- light-brown kidneys with hemorrhages, kidney cut and 5- kidneys are lighter than a standard and 6- kidneys are almost standard, dark and increased and 7- spotted liver, light kidneys, their structure is visible and 8- liver is lighter than a standard, light kidneys and 9- dark maroon pancreas, increased and bloody adrenal and 10- dark maroon pancreas, kidneys with hemorrhages, and the “Necropsy (per animal)” value ([2]; rats, 3 mg/kg i.v., 3 mg/kg) was 1- light kidneys with hemorrhages and 2- light kidneys with hemorrhages, blurred pattern and 3- light kidneys with hemorrhages and 5- standard kidneys and 6- kidneys with hemorrhages, clear cut pattern and 7- light, spotted, unevenly stained kidneys and 8- light kidneys and 9- light kidneys, increased adrenal glands, kidneys with and 10- kidneys with hemorrhages, dark and increased. The “Necropsy (per animal)” value ([2]; rats, 4 mg/kg i.v., 4 mg/kg) was 1- kidneys with hemorrhages, unclear pattern and 2- spotted kidneys with hemorrhages, clear pattern and 3- increased right adrenal gland, standard kidneys and 4- slightly increased adrenal glands, with hemorrhages, and 5- spotted kidneys with hemorrhages, clear pattern and 6- standard kidney color, blurred cut pattern, unclear and 7- kidney surface hemorrhages, visible pattern and 8- light kidneys with hemorrhage foci, unclear pattern of and 9- slightly increased, hyperemic adrenal glands, kidney and 10- standard kidneys.

— patent US12454527B2, “Conjugate monomethyl auristatin E to obtain a composition for treatment of prostate cancer” (priority 2019, dated 2025)
